From PMC4821887, “Identification of chemicals that mimic transcriptional changes associated with autism, brain aging and neurodegeneration” (Nature Communications, 2016)
Structures can show the parent of a compound that is named as a salt. Where two headings read alike, the source gives them in different places.

Test system: mouse cortical neuron cultures

## CN(C)[C@@H]1C(O)=C(C(N)=O)C(=O)[C@@]2(O)C(O)=C3C(=O)c4c(O)cccc4[C@@](C)(O)[C@H]3[C@H](O)[C@@H]12 [Oxytetracycline dihydrate]
mouse, 24 h, 0.1 µM
  % Dead cells (vehicle subtracted): -3.324%
mouse, 24 h, 1 µM
  % Dead cells (vehicle subtracted): -0.5636%
mouse, 24 h, 10 µM
  % Dead cells (vehicle subtracted): 21.6384%

## COP(=S)(OC)Oc1ccc([N+](=O)[O-])cc1 [Parathion-methyl]
  % Dead cells (vehicle subtracted): 1.486%

## CCOP(=S)(OCC)Oc1ccc([N+](=O)[O-])cc1 [Parathion]
  % Dead cells (vehicle subtracted): -1.193%

## CCC(CC)Nc1c([N+](=O)[O-])cc(C)c(C)c1[N+](=O)[O-] [Pendimethalin]
  % Dead cells (vehicle subtracted): 0.8617%

## COc1cnc(OC)n2nc(NS(=O)(=O)c3c(OCC(F)F)cccc3C(F)(F)F)nc12 [Penoxsulam]
mouse, 24 h, 10 µM
  % Dead cells (vehicle subtracted): -0.3089%

## O=S(=O)(O)C(F)(F)C(F)(F)C(F)(F)C(F)(F)C(F)(F)C(F)(F)C(F)(F)C(F)(F)F [Perfluorooctane sulfonic acid]
  % Dead cells (vehicle subtracted): 6.21%

## CC1(C)C(C=C(Cl)Cl)C1C(=O)OCc1cccc(Oc2ccccc2)c1 (stereo not shown) [Permethrin]
  % Dead cells (vehicle subtracted): -0.7739%

## OCCOc1ccccc1 [Phenoxyethanol [2-Phenoxyethanol]]
  % Dead cells (vehicle subtracted): 4.907%

## CCOP(=S)(OCC)SCn1c(=O)oc2cc(Cl)ccc21 [Phosalone]
  % Dead cells (vehicle subtracted): 3.318%

## Nc1c(Cl)c(Cl)nc(C(=O)O)c1Cl [Picloram]
  % Dead cells (vehicle subtracted): 3.752%

## CCCCOCCOCCOCc1cc2c(cc1CCC)OCO2 [Piperonyl butoxide]
mouse, 24 h, 10 µM
  % Dead cells (vehicle subtracted): -3.535%

## Cc1nc(N(C)C)nc(OC(=O)N(C)C)c1C [Pirimicarb]
  % Dead cells (vehicle subtracted): -1.736%

## CCN(CC)c1nc(C)cc(OP(=S)(OC)OC)n1 [Pirimiphos-methyl]
  % Dead cells (vehicle subtracted): -0.1826%

## C#CCC1=C(C)C(OC(=O)C2C(C=C(C)C)C2(C)C)CC1=O (stereo not shown) [Prallethrin]
  % Dead cells (vehicle subtracted): -0.1241%

## CCCN(CCOc1c(Cl)cc(Cl)cc1Cl)C(=O)n1ccnc1 [Prochloraz]
  % Dead cells (vehicle subtracted): -2.048%

## CCCN(CCC)c1c([N+](=O)[O-])cc(C(F)(F)F)c(N)c1[N+](=O)[O-] [Prodiamine]
  % Dead cells (vehicle subtracted): -0.1982%

## CCCSP(=O)(OCC)Oc1ccc(Br)cc1Cl (stereo not shown) [Profenofos]
  % Dead cells (vehicle subtracted): -2.76%

## CSc1nc(NC(C)C)nc(NC(C)C)n1 [Prometryn]
mouse, 24 h, 10 µM
  % Dead cells (vehicle subtracted): -5.322%

## CCCOC(=O)NCCCN(C)C [Propamocarb hydrochloride]
  % Dead cells (vehicle subtracted): -1.887%

## CCC(=O)Nc1ccc(Cl)c(Cl)c1 [Propanil]
  % Dead cells (vehicle subtracted): -3.018%

## CCNP(=S)(OC)O/C(C)=C/C(=O)OC(C)C (stereo not shown) [Propetamphos]
  % Dead cells (vehicle subtracted): -0.3061%

## CCCC1COC(Cn2cncn2)(c2ccc(Cl)cc2Cl)O1 (stereo not shown) [Propiconazole]
  % Dead cells (vehicle subtracted): 0.7517%

## CNC(=O)Oc1ccccc1OC(C)C [Propoxur]
  % Dead cells (vehicle subtracted): 0.5409%

## CCCOc1nn(C(=O)[N-]S(=O)(=O)c2ccccc2C(=O)OC)c(=O)n1C.[Na+] [Propoxycarbazone-sodium]
  % Dead cells (vehicle subtracted): -1.764%

## C#CC(C)(C)NC(=O)c1cc(Cl)cc(Cl)c1 [Propyzamide]
  % Dead cells (vehicle subtracted): 1.57%

## CCOC(=O)COc1cc(-c2nn(C)c(OC(F)F)c2Cl)c(F)cc1Cl [Pyraflufen-ethyl]
  % Dead cells (vehicle subtracted): -2.144%

## Cc1cc(C)nc(Nc2ccccc2)n1 [Pyrimethanil]
mouse, 24 h, 10 µM
  % Dead cells (vehicle subtracted): -4.407%

## CC(COc1ccc(Oc2ccccc2)cc1)Oc1ccccn1 (stereo not shown) [Pyriproxyfen]
mouse, 24 h, 10 µM
  % Dead cells (vehicle subtracted): 1.128%

## COc1cc(OC)nc(Sc2cccc(Cl)c2C(=O)O)n1 [Pyrithiobac-sodium]
mouse, 24 h, 10 µM
  % Dead cells (vehicle subtracted): 0.5188%

## O=C(O)c1c(Cl)ccc2cc(Cl)cnc12 [Quinclorac]
  % Dead cells (vehicle subtracted): -1.41%

## O=[N+]([O-])c1c(Cl)c(Cl)c(Cl)c(Cl)c1Cl [Quintozene]
  % Dead cells (vehicle subtracted): -2.206%

## CCOC(=O)C(C)Oc1ccc(Oc2cnc3cc(Cl)ccc3n2)cc1 (stereo not shown) [Quizalofop-ethyl]
mouse, 24 h, 10 µM
  % Dead cells (vehicle subtracted): -4.709%

## CC(C)=CC1C(C(=O)OCc2coc(Cc3ccccc3)c2)C1(C)C (stereo not shown) [Resmethrin]
  % Dead cells (vehicle subtracted): 1.827%

## C=CCC1=C(C)[C@@H](OC(=O)[C@@H]2[C@@H](C=C(C)C)C2(C)C)CC1=O [S-Bioallethrin]
  % Dead cells (vehicle subtracted): -1.697%

## CCC/C(=N\OCC)C1=C(O)CC(CC(C)SCC)CC1=O (stereo not shown) [Sethoxydim]
  % Dead cells (vehicle subtracted): -0.798%

## CCC(C)(C)C(=O)OC1=C(c2ccc(Cl)cc2Cl)C(=O)OC12CCCCC2 [Spirodiclofen]
  % Dead cells (vehicle subtracted): 1.699%

## CCCN(CC)CC1COC2(CCC(C(C)(C)C)CC2)O1 (stereo not shown) [Spiroxamine]
mouse, 24 h, 10 µM
  % Dead cells (vehicle subtracted): 7.8727%

## Cc1nn(-c2cc(NS(C)(=O)=O)c(Cl)cc2Cl)c(=O)n1C(F)F [Sulfentrazone]
mouse, 24 h, 10 µM
  % Dead cells (vehicle subtracted): -1.513%

## O=c1n(Cl)c(=O)n(Cl)c(=O)n1Cl [Symclosene (Trichloro-s-triazinetrione)]
  % Dead cells (vehicle subtracted): 4.474%

## CCc1ccc(C(=O)NN(C(=O)c2cc(C)cc(C)c2)C(C)(C)C)cc1 [Tebufenozide]
  % Dead cells (vehicle subtracted): -1.661%

## CCOP(=S)(Oc1cnc(C(C)(C)C)nc1)OC(C)C (stereo not shown) [Tebupirimfos]
  % Dead cells (vehicle subtracted): 0.1923%

## CNC(=O)N(C)c1nnc(C(C)(C)C)s1 [Tebuthiuron]
  % Dead cells (vehicle subtracted): -0.9604%

## Cc1[nH]c(=O)n(C(C)(C)C)c(=O)c1Cl [Terbacil]
mouse, 24 h, 10 µM
  % Dead cells (vehicle subtracted): 6.548%

## FC(F)C(F)(F)OCC(Cn1cncn1)c1ccc(Cl)cc1Cl (stereo not shown) [Tetraconazole]
mouse, 24 h, 10 µM
  % Dead cells (vehicle subtracted): 2.833%

## CC(C)=CC1C(C(=O)OCN2C(=O)C3=C(CCCC3)C2=O)C1(C)C (stereo not shown) [Tetramethrin]
  % Dead cells (vehicle subtracted): -2.018%

## c1ccc2[nH]c(-c3cscn3)nc2c1 [Thiabendazole]
mouse, 24 h, 10 µM
  % Dead cells (vehicle subtracted): -3.658%

## N#C/N=C1\SCCN1Cc1ccc(Cl)nc1 [Thiacloprid]
  % Dead cells (vehicle subtracted): 2.238%

## CN1COCN(Cc2cnc(Cl)s2)/C1=N\[N+](=O)[O-] [Thiamethoxam]
  % Dead cells (vehicle subtracted): 1.407%

## COC(=O)c1c(C(F)F)nc(C(F)(F)F)c(C2=NCCS2)c1CC(C)C [Thiazopyr]
  % Dead cells (vehicle subtracted): 1.196%

## CCN(CC)C(=O)SCc1ccc(Cl)cc1 [Thiobencarb]
mouse, 24 h, 10 µM
  % Dead cells (vehicle subtracted): -1.522%

## CCOC(=O)NC(=S)Nc1ccccc1NC(=S)NC(=O)OCC [Thiophanate]
mouse, 24 h, 10 µM
  % Dead cells (vehicle subtracted): -1.666%

## CN(C)C(=S)SSC(=S)N(C)C [Thiram]
  % Dead cells (vehicle subtracted): 0.7821%

## CCO/N=C(\CC)C1=C(O)CC(c2c(C)cc(C)cc2C)CC1=O (stereo not shown) [Tralkoxydim]
  % Dead cells (vehicle subtracted): 4.508%

## CC(C)N(C(=O)SCC(Cl)=C(Cl)Cl)C(C)C [Tri-allate]
  % Dead cells (vehicle subtracted): 1.844%

## CC(C)(C)C(=O)C(Oc1ccc(Cl)cc1)n1cncn1 (stereo not shown) [Triadimefon]
  % Dead cells (vehicle subtracted): -0.7492%

## CC(C)(C)C(O)C(Oc1ccc(Cl)cc1)n1cncn1 (stereo not shown) [Triadimenol]
mouse, 24 h, 10 µM
  % Dead cells (vehicle subtracted): 2.51%

## COC(=O)c1ccccc1S(=O)(=O)NC(=O)N(C)c1nc(C)nc(OC)n1 [Tribenuron-methyl]
mouse, 24 h, 10 µM
  % Dead cells (vehicle subtracted): -1.861%

## CCCCSP(=O)(SCCCC)SCCCC [Tribufos]
  % Dead cells (vehicle subtracted): -0.3794%

## COP(=O)(OC)C(O)C(Cl)(Cl)Cl (stereo not shown) [Trichlorfon]
  % Dead cells (vehicle subtracted): 2.414%

## O=C(O)COc1nc(Cl)c(Cl)cc1Cl [Triclopyr]
  % Dead cells (vehicle subtracted): -0.8572%

## Oc1cc(Cl)ccc1Oc1ccc(Cl)cc1Cl [Triclosan]
  % Dead cells (vehicle subtracted): 0.6048%

## COc1cc(OC)nc(NC(=O)[N-]S(=O)(=O)c2ncccc2OCC(F)(F)F)n1.[Na+] [Trifloxysulfuron-sodium]
  % Dead cells (vehicle subtracted): 0.5929%

## CCCOC/C(=N\c1ccc(Cl)cc1C(F)(F)F)n1ccnc1 [Triflumizole]
mouse, 24 h, 10 µM
  % Dead cells (vehicle subtracted): 1.241%

## CCCN(CCC)c1c([N+](=O)[O-])cc(C(F)(F)F)cc1[N+](=O)[O-] [Trifluralin]
  % Dead cells (vehicle subtracted): 0.2689%

## CC1(C)CCC(=Cc2ccc(Cl)cc2)C1(O)Cn1cncn1 (stereo not shown) [Triticonazole]
mouse, 24 h, 10 µM
  % Dead cells (vehicle subtracted): 0.8709%

## C=CC1(C)OC(=O)N(c2cc(Cl)cc(Cl)c2)C1=O (stereo not shown) [Vinclozolin]
mouse, 24 h, 10 µM
  % Dead cells (vehicle subtracted): -1.854%

## Abamectin
  % Dead cells (vehicle subtracted): 4.666%

## Chlorpyrifos oxon
  % Dead cells (vehicle subtracted): 0.8087%

## Mancozeb
  % Dead cells (vehicle subtracted): 1.017%

## Metiram-zinc
  % Dead cells (vehicle subtracted): -0.5751%

## Milbemectin
  % Dead cells (vehicle subtracted): 1.383%
